Assay in all cases: NCI anticancer screen, dose series, 48 h
Assay [1] has as its system HT29 colon.
The test system of assay [2] is A498 renal.
In assay [3] the test system is OVCAR-8 ovarian.
The test system of assay [4] is MDA-MB-435.
In assay [5] the test system is MALME-3M melanoma.
Assay [6] concerns SF-268 CNS.
For assay [7], the system named is SK-MEL-28 melanoma.
Assay [8] deals with MOLT-4 leukemia.
Assay [9] deals with HCT-15 colon.
The test system of assay [10] is SR leukemia.

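Method: 48-hour compound exposure of cells in 96-well plates, five concentrations, linear interpolation of endpoints. GI50 = concentration required for 50% inhibition of growth. TGI: concentration producing complete growth inhibition.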

Consider `NC1=C(Cl)C(=O)c2ccc(S(N)(=O)=O)cc2C1=O`, for which the GI50 in assay [1] was 0.715 µM; in assay [2] it was 0.507 µM; in assay [3], 0.273 µM; in [4], 0.0288 µM; in [5], 0.0426 µM; in assay [6], 0.372 µM. Moreover, the GI50 is 0.247 µM in assay [7], 0.515 µM in assay [8], 0.164 µM in [9] and 0.262 µM in [10]. The TGI in assay [1] amounted to 2.91 µM; in [2], 1.3 µM; in assay [3], 0.977 µM; in [4] it was 0.0743 µM; in assay [5], 0.137 µM; in assay [6] it was 1.22 µM. The TGI in assay [7] was 0.565 µM; in [8] it was 3.22 µM; in assay [9], 0.339 µM; in assay [10], 0.606 µM.
Turning to `C#CCN=C(N/N=C/c1ccc([N+](=O)[O-])o1)NS(=O)(=O)c1cc(C)c(Cl)cc1SCC(N)=O`, the GI50 was 26.3 µM in assay [1]; 17.1 µM in [2]; 13.8 µM in assay [3]; more than 100 µM in assay [4]; 13.6 µM in [5]; 15 µM in assay [6]. Further, the GI50 in [7] is 14.5 µM; in assay [8] it was 13.2 µM; in [9], 22.1 µM; in [10], 17 µM. Moreover, the TGI in assay [1] is more than 100 µM; in assay [2], 32.7 µM; in assay [3], 29.6 µM; in assay [4] it was more than 100 µM; in assay [5], 27.7 µM; in assay [6] it was 35.8 µM. Also, the TGI in assay [7] turned out to be 32.7 µM; in assay [8], 31.9 µM; in assay [9], 56.4 µM; in assay [10] it was 50.1 µM.
In the case of `O=C(O)C1NCCc2c1[nH]c1ccccc21` (configuration not stated), the GI50 in [1], in assay [2], in [3], in assay [5], in assay [6] and in assay [7] was more than 100 µM each time. Further, the GI50 in [8], in assay [9] and in assay [10] was more than 100 µM each time. The TGI in [1] was more than 100 µM; in [2] it was more than 100 µM; in assay [3] it was more than 100 µM; in assay [4] it was more than 10 µM; in assay [5], more than 100 µM; in assay [6], more than 100 µM. In addition, the TGI in assay [7], in assay [8], in assay [9] and in assay [10] was more than 100 µM each time.
With `CN(C)CCCN(c1nc(C(Cl)(Cl)Cl)ns1)c1nc(C(Cl)(Cl)Cl)ns1`, the GI50 in assay [1] was 1.69 µM; in [2], 1.92 µM; in assay [3], 1.77 µM; in [4], 2.05 µM; in assay [5], 2.18 µM; in [6] it was 3.12 µM. Moreover, the GI50 was 1.9 µM in assay [7], 1.93 µM in assay [8], 1.88 µM in assay [9] and 1.49 µM in [10]. Moreover, the TGI turned out to be 3.37 µM in [1]; 4.89 µM in [2]; 3.52 µM in assay [3]; 4.54 µM in assay [4]; 5.01 µM in [5]; 11.4 µM in assay [6]. The TGI in [7] is 3.5 µM; in assay [8] it was 4.23 µM; in assay [9], 4.08 µM; in assay [10] it was 3.53 µM.
Take `COc1ccc(C(=O)N2CCc3c([nH]c4ccccc34)C2C(=O)O)o1` (configuration not stated): the TGI in [1], in assay [2], in assay [3], in assay [4], in assay [5] and in assay [6] was more than 10 µM in each case. Moreover, the TGI in [7], in assay [8], in assay [9] and in assay [10] was more than 10 µM each time.
In the case of `CN[C@]12CC3(C=CC(=O)C=C3)O[C@@]1(Cc1ccc(OC)cc1)N(C)C(=O)N2`, the GI50 is 1.63 µM in assay [1]; 16.2 µM in assay [2]; 2.53 µM in [3]; 2.57 µM in assay [4]; 2.69 µM in [5]; 2.85 µM in assay [6]. Besides, the GI50 is 2.53 µM in assay [7], 2.8 µM in [8], 1.64 µM in [9] and 1.15 µM in [10]. Further, the TGI in assay [1] amounted to 6.28 µM; in assay [2], 31.6 µM; in assay [3], 21.3 µM; in [4] it was 8.64 µM; in assay [5] it was 7.85 µM; in assay [6] it was 9.82 µM. Besides, the TGI in assay [7] was 6.75 µM; in assay [8] it was 9.88 µM; in assay [9], 10.3 µM; in assay [10] it was 20.1 µM.
For `Cc1cccc2c(N=Nc3ccc(S(N)(=O)=O)cc3)c(O)[nH]c12`, the GI50 in [1], in assay [2], in assay [3], in assay [4], in assay [5] and in assay [6] was more than 25 µM in each case. In addition, the GI50 in assay [7], in [8], in [9] and in [10] was more than 25 µM in each case. Further, the TGI in [1], in assay [2], in assay [3], in assay [4], in assay [5] and in assay [6] was more than 25 µM each time. For the same molecule, the TGI in [7], in assay [8], in assay [9] and in assay [10] was more than 25 µM in each case.
In the case of `S=c1nc2[nH]ncc2c(N/N=C/c2ccccc2)[nH]1`, the GI50 is 15.3 µM in [2]; more than 100 µM in assay [3]; more than 100 µM in assay [4]; more than 100 µM in assay [5]; more than 100 µM in assay [6]; more than 100 µM in assay [7]. In addition, the GI50 in assay [8] was more than 100 µM; in assay [9], 81.3 µM; in assay [10] it was more than 100 µM. In addition, the TGI in assay [2] was 73.4 µM; in assay [3], more than 100 µM; in [4], more than 100 µM; in assay [5] it was more than 100 µM; in assay [6], more than 100 µM; in assay [7], more than 100 µM. Besides, the TGI in assay [8], in assay [9] and in assay [10] was more than 100 µM each time.

Values taken from PubChem BioAssay (NCI).
